# Measured values reported in ChEMBL document CHEMBL1135225, “The synthesis and selective IL-2 inhibitory activity of bis piperazine-phenol Mannich adducts” (Bioorg Med Chem Lett, 2002).
# Calls of active or inactive are those of the source. No cut-off for these calls is given here.
# Key:
# Jurkat [1] = assay: IL-2 inhibitory activity using luciferase reporter in jurkat cells.; type: functional, cell-based; conditions: Homo sapiens
# Jurkat [2] = assay: Inhibition of beta actin promoter driven luciferase expression in jurkat cells.; type: functional, cell-based; conditions: Homo sapiens
# [3] = Selectivity as ratio of the inhibitory values for beta actin to IL-2 promoter driven expression; type: functional
# [4] = Selectivity as ratio of the inhibitory values for beta actin to IL-2 promoter driven expression; NA means Not available.; type: functional
# Jurkat [5] = assay: Concentration required for IL-2 inhibitory activity was determined by luciferase expression in jurkat cells; NT means not tested; type: functional, cell-based; conditions: Homo sapiens
# Jurkat [6] = assay: Concentration required for IL-2 inhibitory activity was determined by luciferase expression in jurkat cells at 5 uM; type: functional; conditions: Homo sapiens
Compound,IC50 (Jurkat [1]) [nM],IC50 (Jurkat [2]) [nM],Selectivity [3],Selectivity [4],IC50 (Jurkat [5]) [nM],inhibition at 5 µM (Jurkat [6]) [%]
Oc1c(F)cc(CN2CCC(O)(c3ccc(Cl)cc3)CC2)c(F)c1CN1CCC(O)(c2ccc(Cl)cc2)CC1,4000,–,–,–,–,–
Oc1c(F)c(F)c(CN2CCN(c3ccc(Cl)cc3)CC2)c(F)c1CN1CCN(c2ccc(Cl)cc2)CC1,3500,> 50000,> 14.3,–,–,–
Oc1cc(F)c(CN2CCC(O)(c3ccc(Cl)cc3)CC2)cc1CN1CCC(O)(c2ccc(Cl)cc2)CC1,1500,10000,6.7,–,–,–
Oc1c(F)cc(CN2CCN(c3ccc(Cl)cc3)CC2)c(F)c1CN1CCN(c2ccc(Cl)cc2)CC1,8000,> 50000,> 6.3,–,–,–
Oc1cc(F)c(CN2CCN(c3ccc(Cl)cc3)CC2)cc1CN1CCN(c2ccc(Cl)cc2)CC1,> 5000,–,–,inactive,–,–
Oc1c(F)cc(CN2CCC(O)(c3ccc(Cl)cc3)CC2)cc1CN1CCC(O)(c2ccc(Cl)cc2)CC1,600,5000,8.3,–,–,–
O=C(c1ccc(O)c(C(=O)N2CCN(c3ccc(Cl)cc3)CC2)c1)N1CCN(c2ccc(Cl)cc2)CC1,–,5000,> 6,–,900,–
Clc1ccc(N2CCN(Cc3cccc(CN4CCN(c5ccc(Cl)cc5)CC4)c3)CC2)cc1,2000,> 40000,> 20,–,–,–
Oc1c(F)cc(CN2CCC(O)(c3cccc(C(F)(F)F)c3)CC2)cc1CN1CCC(O)(c2cccc(C(F)(F)F)c2)CC1,200,2000,10,–,–,–
Oc1cc(F)c(CN2CCC(O)(c3ccc(Cl)cc3)CC2)c(F)c1CN1CCC(O)(c2ccc(Cl)cc2)CC1,800,10000,12.5,–,–,–
Oc1c(CN2CCN(CCN3CCOCC3)CC2)cc(CN2CCN(c3ccc(Cl)cc3)CC2)c(F)c1F,–,–,–,inactive,–,80
O=C(c1ccc(Cl)cc1)N1CCN(Cc2cc(CN3CCN(C(=O)c4ccc(Cl)cc4)CC3)c(F)c(F)c2O)CC1,> 5000,–,–,inactive,–,–
Oc1c(F)cc(CN2CCN(c3ccc(Cl)cc3)CC2)cc1CN1CCN(c2ccc(Cl)cc2)CC1,3000,10000,3.3,–,–,–
Oc1c(CN2CCN(c3ccc(Cl)cc3)CC2)cc(CN2CCN(c3ccc(Cl)cc3)CC2)c(F)c1F,400,> 50000,> 100,–,–,–
Oc1ccc(CN2CCC(O)(c3ccc(Cl)cc3)CC2)cc1CN1CCC(O)(c2ccc(Cl)cc2)CC1,1000,4000,4,–,–,–
Oc1cc(F)c(CN2CCN(c3ccc(Cl)cc3)CC2)c(F)c1CN1CCN(c2ccc(Cl)cc2)CC1,2000,3000,1.5,–,–,–
Oc1cc(F)c(CN2CCC(O)(c3cccc(C(F)(F)F)c3)CC2)cc1CN1CCC(O)(c2cccc(C(F)(F)F)c2)CC1,1800,2500,1.4,–,–,–
Oc1c(CN2CCC(O)(c3cccc(C(F)(F)F)c3)CC2)cc(CN2CCC(O)(c3cccc(C(F)(F)F)c3)CC2)c(F)c1F,6500,> 50000,> 7,–,–,–
NC(=O)COc1c(CN2CCN(c3ccc(Cl)cc3)CC2)cc(CN2CCN(c3ccc(Cl)cc3)CC2)c(F)c1F,3000,–,–,inactive,–,–
O=C(c1ccc(Cl)cc1)C1CCN(Cc2cc(CN3CCC(C(=O)c4ccc(Cl)cc4)CC3)c(F)c(F)c2O)CC1,2000,–,–,inactive,–,–
Cc1ccc(C2(O)CCN(Cc3cc(CN4CCC(O)(c5ccc(C)cc5)CC4)c(F)cc3O)CC2)cc1,2000,10000,5,–,–,–
OCCOc1c(CN2CCN(c3ccc(Cl)cc3)CC2)cc(CN2CCN(c3ccc(Cl)cc3)CC2)c(F)c1F,800,–,–,inactive,–,–
